Experimental data taken from patent publication US20210024507A1, “Compounds” (Step Pharma S.A.S., priority 2018, published 2021).

How the values were obtained:
[1] = tested on: human CTPS1; experiment: RapidFire/MS-based enzyme selectivity assay, human CTPS1; assay type: biochemical; conditions: calculated from the CTPS1 and CTPS2 IC50 values
Summary of the method: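 Full-length C-terminal FLAG-His-tagged human CTPS1 (1-591) was preincubated 10 minutes at 25° C. with compound in 50 mM HEPES pH 8.0, 20 mM MgCl2, 5 mM KCl, 1 mM DTT and 0.01% Tween-20. Substrate mix contained 0.3 mM ATP, 0.2 mM UTP, 0.07 mM GTP and 0.1 mM L-glutamine, and the reaction ran in its linear phase at 25° C. before formic acid stop. CTP was measured by RapidFire MS relative to ^13C9-^15N3-CTP, and IC50 came from percent inhibition curves.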

[2] = target: T1, human CTPS1 (Homo sapiens, UniProt P17812); experiment: Human CTPS1 enzyme inhibition (ADP-Glo Max assay); assay type: biochemical; conditions: human full length CTPS1, 25° C., read-out: CTPS1 (Human CTPS1 Enzyme Inhibition, IC50 grouped by potency range)
T1 construct: purchased Proteros biostructures GmbH
T1 sequence (P17812 1-591): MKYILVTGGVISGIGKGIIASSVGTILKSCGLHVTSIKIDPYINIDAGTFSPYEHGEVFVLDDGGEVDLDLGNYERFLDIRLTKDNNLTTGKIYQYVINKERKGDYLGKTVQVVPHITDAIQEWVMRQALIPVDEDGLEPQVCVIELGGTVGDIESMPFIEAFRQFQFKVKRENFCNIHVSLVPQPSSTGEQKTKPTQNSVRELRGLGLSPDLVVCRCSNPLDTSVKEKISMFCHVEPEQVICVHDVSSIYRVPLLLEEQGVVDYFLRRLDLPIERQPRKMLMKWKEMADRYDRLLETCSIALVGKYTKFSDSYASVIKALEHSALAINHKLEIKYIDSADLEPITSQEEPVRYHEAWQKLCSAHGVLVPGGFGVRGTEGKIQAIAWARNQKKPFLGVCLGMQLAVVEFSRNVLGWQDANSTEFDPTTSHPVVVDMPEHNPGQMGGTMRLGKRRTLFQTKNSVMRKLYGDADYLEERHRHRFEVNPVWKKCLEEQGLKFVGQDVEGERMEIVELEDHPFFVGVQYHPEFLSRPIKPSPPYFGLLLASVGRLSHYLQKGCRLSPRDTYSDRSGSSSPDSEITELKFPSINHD
Summary of the method: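 Full-length C-terminal FLAG-His-tagged CTPS1, preincubated 10 min at 25 °C with compound in 50mM Tris pH 8.0, 10mM MgCl2, 0.01% Tween-20, 2mM L-cysteine. Started with ATP 0.31mM, GTP 0.034mM, UTP 0.48mM, L-glutamine 0.186mM in substrate mix, run within linear phase at 25 °C. ADP via ADP-Glo Max luminescence; IC50 from % inhibition curve.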

Structure (SMILES)	Selectivity (fold selectivity between CTPS1 and CTPS2) [1]	IC50 [2] [nM]
CCC(C(=O)Nc1ccc(-c2cncc(C(F)(F)F)n2)cc1)c1ccnc(NS(=O)(=O)C2CC2)n1 (stereo not shown) [P103, 2-(2-(cyclopropanesulfonamido)pyrimidin-4-yl)-N-(4-(6-(trifluoromethyl)pyrazin-2-yl)phenyl)butanamide]	+ (2-30 fold (+))	100 to 1000
CCOc1cncc(-c2ccc(NC(=O)C(CCOC)c3ccnc(NS(=O)(=O)C4CC4)n3)cc2)n1 (stereo not shown) [P110, 2-(2-(cyclopropanesulfonamido)pyrimidin-4-yl)-N-(4-(6-ethoxypyrazin-2-yl)phenyl)-4-methoxybutanamide]	++ (>30-60 fold (++))	≤ 100
CCC(C(=O)Nc1ccc(-c2cncc(Cl)c2)cc1)c1ccnc(NS(=O)(=O)C2CC2)n1 (stereo not shown) [P1, N-(4-(5-Chloropyridin-3-yl)phenyI)-2-(2-(cyclopropanesulfonamido)pyrimidin-4-yl)butanamide]	+ (2-30 fold (+))	100 to 1000
CCOc1cncc(-c2ccc(NC(=O)C(CC)c3ccnc(NS(=O)(=O)C4CC4)n3)cc2)n1 (stereo not shown) [P105, 2-(2-(cyclopropanesulfonamido)pyrimidin-4-yl)-N-(4-(6-ethoxypyrazin-2-yl)phenyl)butanamide]	++ (>30-60 fold (++))	≤ 100

The next lines start with the values.

Selectivity (fold selectivity between CTPS1 and CTPS2) [1]	IC50 [2] [nM]	Structure (SMILES)
+ (2-30 fold (+))	≤ 100	CCOc1cncc(-c2ccc(NC(=O)C(F)(CC)c3cncc(NS(=O)(=O)C4CC4)n3)nc2)n1 (single isomer, unassigned) [P207, 2-(6-(cyclopropanesulfonamido)pyrazin-2-yl)-N-(5-(6-ethoxypyrazin-2-yl)pyridin-2-yl)-2-fluorobutanamide]
++ (>30-60 fold (++))	≤ 100	CCOc1cncc(-c2ccc(NC(=O)C(F)(CC)c3ccnc(NS(=O)(=O)C4CC4)n3)nc2)n1 (racemic) [P112, 2-(2-(Cyclopropanesulfonamido)pyrimidin-4-yl)-N-(5-(6-ethoxypyrazin-2-yl)pyridin-2-yl)-2-fluorobutanamide]
+++ (>60 fold (+++))	≤ 100	CCC(C(=O)Nc1ccc(-c2cncc(OCC(F)(F)F)n2)cc1)c1ccnc(NS(=O)(=O)C2CC2)n1 (stereo not shown) [P108, 2-(2-(cyclopropanesulfonamido)pyrimidin-4-yl)-N-(4-(6-(2,2,2-trifluoroethoxy)pyrazin-2-yl)phenyl)butanamide]
+++ (>60 fold (+++))	≤ 100	CCOc1cncc(-c2ccc(NC(=O)C(CC)c3ccnc(NS(=O)(=O)C4CC4)n3)nc2)n1 (stereo not shown) [P88, 2-(2-(cyclopropanesulfonamido)pyrimidin-4-yl)-N-(5-(6-ethoxypyrazin-2-yl)pyridin-2-yl)butanamide]
